Converted amounts (≈) assume the structure as drawn. Where two headings read alike, the source gives them in different places.
Assays:
[1] = tested on: Pseudomonas aeruginosa PA669 (2009 tracheal aspirate isolate); assay: MIC assay, PA669; type: cell-based
[2] = tested on: Pseudomonas aeruginosa PA693 (2009 corneal scraping isolate); assay: MIC assay, PA693; type: cell-based
[3] = tested on: Escherichia coli EC107 (ATCC 25922); assay: MIC assay, EC107; type: cell-based
[4] = tested on: Enterococcus faecium EF404 (blood isolate, tet(M)); assay: MIC assay, EF404; type: cell-based
[5] = tested on: Proteus mirabilis PM112 (ATCC 35659); assay: MIC assay, PM112; type: cell-based; conditions: ATCC35659, read-out: MIC PM 112 35659
[6] = tested on: Moraxella catarrhalis MC205 (ATCC 8176); assay: MIC assay, MC205; type: cell-based; conditions: ATCC8176, read-out: MIC MC 205 8176
PA 884 35151 = assay: MIC assay, PA884; conditions: Pseudomonas aeruginosa, read-out: MIC PA 884 351 51
Method: (§3) MICs were determined according to the Clinical and Laboratory Standards Institute (CLSI) guidances (e.g., CLSI. Performance standards for antimicrobial susceptibility testing; nineteenth information supplement. CLSI document M100-S19, CLSI, 940 West Valley Road, Suite 1400, Wayne, Pa. 19087-1898, USA, 2009). Briefly, frozen bacterial strains were thawed and subcultured onto Mueller Hinton Broth (MHB) or other appropriate media (Streptococcus requires blood and Haemophilus requires hemin and NAD). Following incubation overnight, the strains were subcultured onto Mueller Hinton Agar and again incubated overnight. […] Isolated colonies were selected to prepare a starting inoculum equivalent to a 0.5 McFarland standard. […] Test compounds were prepared by dilution in sterile water to a final concentration of 5.128 mg/mL. Antibiotics (stored frozen, thawed and used within 3 hours of thawing) and compounds were further diluted to the desired working concentrations.
(§4) The assays were run as follows. Fifty μL of MHB was added to wells 2-12 of a 96-well plate. One hundred μL of appropriately diluted antibiotics was added to well 1. Fifty μL of antibiotics was removed from well 1 and added to well 2 and the contents of well 2 mixed by pipetting up and down five times. Fifty μL of the mixture in well 2 was removed and added to well 3 and mixed as above. Serial dilutions were continued in the same manner through well 12. Fifty μL was removed from well 12 so that all contained 50 μL. Fifty μL of the working inoculum was then added to all test wells. A growth control well was prepared by adding 50 μL of working inoculum and 50 μL of MHB to an empty well. The plates were then incubated at 37° C. overnight, removed from the incubator and each well was read on a plate reading mirror. The lowest concentration (MIC) of test compound that inhibited the growth of the bacteria was recorded.

[7] = tested on: Streptococcus pneumoniae SP106 (ATCC 49619); assay: MIC assay, SP106; type: cell-based; conditions: ATCC49619, read-out: MIC SP 106 49619
[8] = tested on: Escherichia coli EC878 (MG1655 tolC::kan); assay: microbe, parasite or virus in culture; type: cell-based
[9] = tested on: Pseudomonas aeruginosa PA111 (ATCC 27853); assay: MIC assay, PA111; type: cell-based; conditions: ATCC27853, read-out: MIC PA 111 27853
[10] = tested on: Streptococcus pyogenes SP312 (2009 clinical isolate, tet(M)); assay: MIC assay, SP312; type: cell-based
PA 689 = assay: MIC assay, PA689; conditions: Pseudomonas aeruginosa, read-out: MIC PA 689
Method: as §3, §4

KP 194 7E+05 = assay: MIC assay, KP194; conditions: Table 5
Method: as §3, §4

[11] = tested on: Haemophilus influenzae HI262 (tetracycline-resistant, ampicillin-resistant); assay: MIC assay, HI262; type: cell-based; conditions: read-out: MIC HI 262 33929
[12] = tested on: Enterococcus faecalis EF103 (ATCC 29212); assay: MIC assay, EF103; type: cell-based; conditions: ATCC29212, read-out: MIC EF 103 29212
[13] = tested on: Streptococcus pneumoniae SP160 (tet(M)); assay: MIC assay, SP160; type: cell-based
[14] = tested on: Pseudomonas aeruginosa PA1145 (strain used in murine pneumonia model); assay: MIC assay, PA1145; type: cell-based
EC 880 ipxC = assay: MIC assay, EC880; type: cell-based
Source text: (§1) Minimum Inhibitory Concentration (MIC) Assay
(§2) The assays were run as follows.

[15] = tested on: Enterobacter cloacae EC108 (ATCC 13047); assay: MIC assay, EC108; type: cell-based; conditions: ATCC13047, read-out: MIC ECI 108 13047
[16] = tested on: Enterococcus faecalis EF159 (tet(M)); assay: MIC assay, EF159; type: cell-based
[17] = tested on: Stenotrophomonas maltophilia SM256 (cystic fibrosis isolate, MDR); assay: MIC assay, SM256; type: cell-based
EC 882 imp = assay: MIC assay, EC882; type: cell-based
Source text: as §1, §2

[18] = tested on: Staphylococcus aureus SA158 (tetracycline-resistant tet(K)); assay: MIC assay, SA158; type: cell-based
[19] = tested on: Pseudomonas aeruginosa PA555 (ATCC BAA-47, PAO1); assay: MIC assay, PA555; type: cell-based
[20] = tested on: Acinetobacter baumannii AB110 (ATCC 19606); assay: MIC assay, AB110; type: cell-based; conditions: ATCC19606, read-out: MIC AB 110 19606

## CN(C)[C@@H]1C(O)=C(C(N)=O)C(=O)[C@@]2(O)C(O)=C3C(=O)c4c(O)cccc4C[C@H]3C[C@@H]12 [Sancycline, sancycline]
[1]
  MIC: 33 µg/mL (≈ 79.6 µM)
[1]; read-out: MIC PA 669
  MIC: 33 µg/mL (≈ 79.6 µM)
[2]
  MIC: 33 µg/mL (≈ 79.6 µM)
[2]; read-out: MIC PA 693
  MIC: 33 µg/mL (≈ 79.6 µM)
[3]; ATCC25922, read-out: MIC EC 07 25922, E. coli ATCC 25922, Table 7
  MIC: 8 µg/mL (≈ 19.3 µM)
[3]; ATCC25922, read-out: MIC EC 107 259 22, E. coli ATCC 25922, Table 6
  MIC: 8 µg/mL (≈ 19.3 µM)
[3]; ATCC25922, read-out: MIC EC 107 25922, E. coli ATCC 25922, Table 4
  MIC: 8 µg/mL (≈ 19.3 µM)
[3]; ATCC25922, read-out: MIC EC 107 25922, E. coli ATCC 25922, Table 5
  MIC: 8 µg/mL (≈ 19.3 µM)
[3]; ATCC25922, read-out: MIC EC 107 25922, control compounds
  MIC: 8 µg/mL (≈ 19.3 µM)
[3]; ATCC25922, read-out: MIC EC 107 25922, control compounds, numeric
  MIC: 8 µg/mL (≈ 19.3 µM)
[4]; read-out: MIC EF 404 tet M
  MIC: 4 µg/mL (≈ 9.65 µM)
[4]; read-out: MIC EF 404 tetM
  MIC: 4 µg/mL (≈ 9.65 µM)
[5]
  MIC: 4 µg/mL (≈ 9.65 µM)
[6]
  MIC: 0.13 µg/mL (≈ 0.314 µM)
PA 884 35151
  MIC: 4 µg/mL (≈ 9.65 µM)
[7]
  MIC: 0.25 µg/mL (≈ 0.603 µM)
[8]; MG1655, read-out: MIC EC 878 toIC, E. coli MG1655 tolC::kan, Table 6
  MIC: 1 µg/mL (≈ 2.41 µM)
[8]; MG1655, read-out: MIC EC 878 toIC, E. coli MG1655 tolC::kan, Table 7
  MIC: 1 µg/mL (≈ 2.41 µM)
[8]; MG1655, read-out: MIC EC 878 toIC, control compounds
  MIC: 1 µg/mL (≈ 2.41 µM)
[8]; MG1655, read-out: MIC EC 878 tolC, control compounds, numeric
  MIC: 1 µg/mL (≈ 2.41 µM)
[9]
  MIC: 33 µg/mL (≈ 79.6 µM)
[10]; read-out: MIC SP 312
  MIC: 4 µg/mL (≈ 9.65 µM)
[10]; read-out: MIC SP 312 tet M
  MIC: 4 µg/mL (≈ 9.65 µM)
PA 689
  MIC: 16 µg/mL (≈ 38.6 µM)
KP 194 7E+05
  MIC KP 194 7E+05: 32 μg/mL
[11]
  MIC: 0.5 µg/mL (≈ 1.21 µM)
[12]
  MIC: 8 µg/mL (≈ 19.3 µM)
[13]; read-out: MIC SP 160 tet M, S. pneumoniae tet(M), Table 6
  MIC: 8 µg/mL (≈ 19.3 µM)
[13]; read-out: MIC SP 160 tetM, S. pneumoniae tet(M), Table 4
  MIC: 8 µg/mL (≈ 19.3 µM)
[13]; read-out: MIC SP 160 tetM, S. pneumoniae tet(M), Table 5
  MIC: 8 µg/mL (≈ 19.3 µM)
[13]; read-out: MIC SP 160 tetM, S. pneumoniae tet(M), Table 7
  MIC: 8 µg/mL (≈ 19.3 µM)
[13]; read-out: MIC SP 160 tetM, control compounds
  MIC: 8 µg/mL (≈ 19.3 µM)
[13]; read-out: MIC SP 160 tetM, control compounds, numeric
  MIC: 8 µg/mL (≈ 19.3 µM)
[14]
  MIC: 33 µg/mL (≈ 79.6 µM)
[14]; read-out: MIC PA 1145
  MIC: 32 µg/mL (≈ 77.2 µM)
EC 880 ipxC; Table 7, read-out: MIC EC 880 ipxC
  MIC: 0.25 µg/mL (≈ 0.603 µM)
EC 880 ipxC; read-out: MIC EC 880 ipx C
  MIC: 0.2 µg/mL (≈ 0.483 µM)
[15]
  MIC: 8 µg/mL (≈ 19.3 µM)
[16]; read-out: MIC EF 159 tetM, E. faecalis tet(M), Table 4
  MIC: 8 µg/mL (≈ 19.3 µM)
[16]; read-out: MIC EF 159 tetM, E. faecalis tet(M), Table 5
  MIC: 8 µg/mL (≈ 19.3 µM)
[17]
  MIC: 1 µg/mL (≈ 2.41 µM)
[17]; read-out: MIC SM 256
  MIC: 1 µg/mL (≈ 2.41 µM)
EC 882 imp; Table 7, read-out: MIC EC 882 imp
  MIC: 0.25 µg/mL (≈ 0.603 µM)
EC 882 imp; read-out: MIC EC 882 imp, Table 6
  MIC: 0.25 µg/mL (≈ 0.603 µM)
[18]; read-out: MIC SA 158 tetK, S. aureus tet(K), Table 4
  MIC: 4 µg/mL (≈ 9.65 µM)
[18]; read-out: MIC SA 158 tetK, S. aureus tet(K), Table 5
  MIC: 4 µg/mL (≈ 9.65 µM)
[18]; read-out: MIC SA 158 tetK, S. aureus tet(K), Table 6
  MIC: 4 µg/mL (≈ 9.65 µM)
[18]; read-out: MIC SA 158 tetK, S. aureus tet(K), Table 7
  MIC: 4 µg/mL (≈ 9.65 µM)
[18]; read-out: MIC SA 158 tetK, control compounds
  MIC: 4 µg/mL (≈ 9.65 µM)
[18]; read-out: MIC SA 158 tetK, control compounds, numeric
  MIC: 4 µg/mL (≈ 9.65 µM)
[19]
  MIC: 32 µg/mL (≈ 77.2 µM)
[19]; read-out: MIC PA5 55 BAA- 47
  MIC: 32 µg/mL (≈ 77.2 µM)
[19]; read-out: MIC PA 555
  MIC: 32 µg/mL (≈ 77.2 µM)
[19]; read-out: MIC PA 555 BAA- 47
  MIC: 32 µg/mL (≈ 77.2 µM)
[19]; read-out: MIC PA 555 BAA-47
  MIC: 32 µg/mL (≈ 77.2 µM)
[20]
  MIC: 0.25 µg/mL (≈ 0.603 µM)

Source: patent US10315992B2, “Tetracyline compounds” (Tetraphase Pharmaceuticals, Inc., priority 2012, dated 2019)
